# Assay results as given in US20090082371A1, “Treatment of Viral Disease and Cancer With Nf-kappaB Inhibitors” (priority 2005, published 2009).
# Columns and labels:
# [1] = test system: Hela human cervical cancer cells; experiment: Cancer cell growth, viable cell count by trypan blue exclusion; type: cell-based; details: for inhibition at 5 µM: Homo sapiens, 144 h; for inhibition at 5 µM / % inhibition of cell growth: day 6, vs untreated cells
# Excerpt: (§1) The tested cells include LNCAP human prostate cancer cells, MDA-MB-468 human breast cancer cells, H1299 human lung cancer cells, AGS human gastric cancer cells, HepG2 human liver cancer cells, PANC-1 human pancreatic carcinoma cells, Jurkat human acute T-cell leukemia cells, A431 human epidermoid carcinoma cells, U251 human glioma cells, NBT-II human bladder cancer cells, and Hela human cervical cancer cells.
# [2] = test system: AGS human gastric cancer cells; experiment: as above; type: cell-based; details: for inhibition at 5 µM: Homo sapiens, 144 h
# Excerpt: as §1
# [3] = test system: LNCAP human prostate cancer cells; experiment: as above; type: cell-based
# Excerpt: as §1
# [4] = test system: H1299 human lung cancer cells; experiment: as above; type: cell-based; details: H1299, 5 μM
# Excerpt: as §1
# [5] = test system: PANC-1 human pancreatic carcinoma cells; experiment: as above; type: cell-based; details: PANC-1, 5 μM
# Excerpt: as §1
# [6] = test system: MDA-MB-468 human breast cancer cells; experiment: as above; type: cell-based; details: MDA-MB-468, 5 μM
# Excerpt: as §1
# U251 human glioma cells = experiment: as above; type: cell-based; details: U251, 5 μM; for cell apoptosis: day 6
# Excerpt: as §1
# [7] = test system: NBT-II human bladder cancer cells; experiment: as above; type: cell-based; details: for inhibition at 5 µM: Homo sapiens, 144 h
# Excerpt: as §1
# [8] = test system: HepG2 human liver cancer cells; experiment: as above; type: cell-based; details: HepG2, 5 μM
# Excerpt: as §1
# [9] = test system: A431 human epidermoid carcinoma cells; experiment: as above; type: cell-based; details: A431, 5 μM; for cell apoptosis: day 6; for % inhibition of cell growth: day 6, vs untreated cells
# Excerpt: as §1
# [10] = test system: VSV-G-enveloped HIV-Luciferase viruses (HIV-1)
# cells listed in Table 1 = experiment: Cancer cell growth, panel of cells listed in Table 1; type: cell-based, human; details: 5 μM, day 6, vs untreated cells
# Excerpt: as §1
# [11] = test system: retrovirus expressing GFP; details: 293T cells, tested dosages, two days after infection
# Excerpt: 293T human embryonic kidney cells were infected with the GFP-retrovirus. […] Two days later, the cells were photographed with a digital camera mounted on a microscope. […] Data represent the mean±standard deviation of three independent experiments.
# Two days later, the number of infected cells from two separate experiments was counted.
# [12] = test system: Jurkat human acute T-cell leukemia cells; experiment: Cancer cell growth, viable cell count by trypan blue exclusion; type: cell-based; details: 5 μM
# Excerpt: as §1
# HT29 cells = experiment: as above; type: cell-based; details: HT29, 5 μM
# [13] = Homo sapiens, 144 h, day 6, vs untreated cells
# [14] = 5 μM, day 6, about 4×10^4 cells at start
# [15] = 5 μM, day 6, vs untreated cells
# [16] = day 6, about 4×10^4 cells at start
smiles,measurement,setting,value
"Cc1ccc(S(=O)(=O)/C=C/C#N)cc1 [BAY 11-7082, (E)3-[(4-Methylphenyl)sulfonyl]-2-propenenitrile, reference compound]",inhibition at 5 µM,[1],9 to 12%
same,inhibition at 5 µM,"[2]; day 6, vs untreated cells",~90%
same,cell apoptosis,"[3]; 5 μM, day 6",completely cell apoptosis
same,cell apoptosis,[4]; day 6,completely cell apoptosis
same,cell apoptosis,[5]; day 6,completely cell apoptosis
same,inhibition at 5 µM,[6]; [13],9 to 12%
same,cell apoptosis,U251 human glioma cells,completely cell apoptosis
same,inhibition at 5 µM,"[7]; day 6, vs untreated cells",9 to 12%
same,cell apoptosis,[8]; day 6,completely cell apoptosis
same,cell apoptosis,[9],completely cell apoptosis
Nc1ccc2ncnc(NCCc3ccc(Oc4ccccc4)cc3)c2c1,cell deaths observed,[10],no obvious cell deaths
same,inhibition of HIV-1 viral infection and replication (HIV-1-induced Luciferase activity),[10],showed inhibition
same,"inhibition of cell growth, range over the cancer cells of Table 1",cells listed in Table 1,10-90%
same,cell deaths observed,[11],no obvious cell deaths
same,Treated (cell number × 10^5),[1]; [14],1.1 ± 0.1 × 10^5
same,% inhibition of cell growth,[1]; 5 μM,70%
same,Treated (cell number × 10^5),[2]; [14],2.1 ± 0.1 × 10^5
same,% inhibition of cell growth,[2]; [15],10%
same,Treated (cell number × 10^5),[3]; [14],0.7 ± 0.2 × 10^5
same,% inhibition of cell growth,[3]; [15],90%
same,Treated (cell number × 10^5),[4]; [16],3 ± 0.2 × 10^5
same,% inhibition of cell growth,"[4]; day 6, vs untreated cells",52%
same,Treated (cell number × 10^5),[12]; [16],6.3 ± 0.4 × 10^5
same,% inhibition of cell growth,"[12]; day 6, vs untreated cells",28%
same,Treated (cell number × 10^5),[5]; [16],1.9 ± 0.1 × 10^5
same,% inhibition of cell growth,"[5]; day 6, vs untreated cells",14%
same,Treated (cell number × 10^5),[6]; [16],5.4 ± 0.1 × 10^5
same,% inhibition of cell growth,"[6]; day 6, vs untreated cells",10%
same,Treated (cell number × 10^5),U251 human glioma cells; [16],7.2 ± 0.2 × 10^5
same,% inhibition of cell growth,"U251 human glioma cells; day 6, vs untreated cells",20%
same,Treated (cell number × 10^5),[7]; [14],2.7 ± 0.1 × 10^5
same,% inhibition of cell growth,[7]; [15],10%
same,Treated (cell number × 10^5),[8]; [16],0.8 ± 0.1 × 10^5
same,% inhibition of cell growth,"[8]; day 6, vs untreated cells",80%
same,Treated (cell number × 10^5),[9]; [16],3.2 ± 0.2 × 10^5
same,% inhibition of cell growth,[9],59%
same,Treated (cell number × 10^5),HT29 cells; [16],1.9 ± 0.1 × 10^5
same,% inhibition of cell growth,"HT29 cells; day 6, vs untreated cells",50%
C=CCOc1ccc(CCNc2ncnc3ccc(N)cc23)cc1,cell deaths observed,[10],no obvious cell deaths
same,inhibition of HIV-1 viral infection and replication (HIV-1-induced Luciferase activity),[10],showed inhibition
same,cell deaths observed,[11],no obvious cell deaths
Nc1ccc2ncnc(NCCc3ccc(OCc4ccccn4)cc3)c2c1,cell deaths observed,[10],no obvious cell deaths
same,inhibition of HIV-1 viral infection and replication (HIV-1-induced Luciferase activity),[10],showed inhibition
same,cell deaths observed,[11],no obvious cell deaths
"COc1cc(O)c2c(c1)oc(=O)c1c3cc(O)c(O)cc3oc21 [7-Methoxy-5,11,12-trihydroxy-coumestan]",% inhibition of cell growth,[1]; 5 μM,~29%
same,% inhibition of cell growth,"[4]; day 6, vs untreated cells",~31%
same,% inhibition of cell growth,"[6]; day 6, vs untreated cells",~10%
same,% inhibition of cell growth,"[8]; day 6, vs untreated cells",~25%
same,% inhibition of cell growth,[9],about 51%
"COc1ccc([C@@]23Oc4cc(OC)cc(OC)c4[C@]2(O)[C@H](O)[C@H](C(=O)N(C)C)[C@H]3c2ccccc2)cc1 [rocaglamide, reference compound]",cell deaths observed,[10],no obvious cell deaths
same,inhibition of HIV-1 viral infection and replication (HIV-1-induced Luciferase activity),[10],showed inhibition
same,inhibition at 5 µM,[1],9 to 40%
same,inhibition at 5 µM,"[2]; day 6, vs untreated cells",~50%
same,inhibition at 5 µM,[3]; [13],~70%
same,inhibition at 5 µM,"[4]; Homo sapiens, NCI-H1299, 144 h, day 6, vs untreated cells",~80%
same,inhibition at 5 µM,[5]; [13],9 to 40%
same,cell apoptosis,[6]; day 6,completely cell apoptosis
same,cell apoptosis,U251 human glioma cells,completely cell apoptosis
same,inhibition at 5 µM,"[7]; day 6, vs untreated cells",9 to 40%
same,inhibition at 5 µM,[8]; [13],9 to 40%
same,cell apoptosis,[9],completely cell apoptosis
Nc1ccc2ncnc(NCCc3ccc(OCc4ccccc4)cc3)c2c1,cell deaths observed,[10],no obvious cell deaths
same,inhibition of HIV-1 viral infection and replication (HIV-1-induced Luciferase activity),[10],showed inhibition
same,cell deaths observed,[11],no obvious cell deaths
"CC1=C(O)C(=O)C=C2C1=CC=C1[C@@]2(C)CC[C@@]2(C)[C@@H]3C[C@](C)(C(=O)O)CC[C@]3(C)CC[C@]12C [celastrol, 3-hydroxy-24-nor-2-oxo-1(10),3,5,7-friedelatetraen-29-oic Acid, reference compound]",cell deaths observed,[10],no obvious cell deaths
same,cell apoptosis,[12]; day 6,about 90%
"O=C(/C=C/c1ccc(O)c(O)c1)OCCc1ccccc1 [cape, reference compound]",cell deaths observed,[10],no obvious cell deaths
same,inhibition of HIV-1 viral infection and replication (HIV-1-induced Luciferase activity),[10],showed inhibition
